A short description of the series: In vitro dermal absorption of hesperidin on Franz cells with skin explants (1st experimental part). To be noted: hesperidin 0.5 weight % of sample. The class given is in vitro ADME. From the text: The diffusion of a first active ingredient, hesperidin, in the different layers of the skin has been assessed based on the manner by which it has been applied on the skin, namely: • 1) in the case where the hesperidin has been encapsulated in microparticles according to the invention, and following Example 1 which has been detailed above, • 2) in the case where the hesperidin has been encapsulated in microparticles of polymers, • 3) in the case where the hesperidin has been provided in a free form, • 4) in the case where the hesperidin has been provided in the form of an inclusion complex with a cyclodextrin.
These 4 preparations have constituted 4 samples of cutaneous application of hesperidin. Hesperidin represented 0.5 weight % of the mass of each of these 4 samples.
Tests on these 4 samples have been carried out in accordance with the Directives: SCCS/1358/10 on date of Jun. 22, 2010 <<Basic criteria for the in vitro assessment of dermal absorption of cosmetic ingredient>>, OECD 28 of 2004. OECD being the abbreviation of <<Organization for Economic Co-operation and Development>> and SCCS being the abbreviation of <<Scientific Committee on Consumer Safety>>.
The material that has been used consisted of Franz cells. Skin explants, with an average surface area of 2.54 cm^2 and with a thickness comprised between 1.1 and 1.35 mm, have been used. […]

Structures are written as SMILES.

`COc1ccc([C@@H]2CC(=O)c3c(O)cc(O[C@@H]4O[C@H](CO[C@@H]5O[C@@H](C)[C@H](O)[C@@H](O)[C@H]5O)[C@@H](O)[C@H](O)[C@H]4O)cc3O2)cc1O` [hesperidin in a free form, hesperidin]: the “amount of hesperidin cumulated in the dermis during 24 hours” value is 1.98 μg/cm^2.

Source of the values: US20160175229A1, “MICROPARTICLES WITH CYCLODEXTRINS HAVING A DUAL LEVEL OF ENCAPSULATION” (LCA DERMATECH, priority 2013, published 2016).
